Data taken from ChEMBL document CHEMBL3112580, “A new face for old antibiotics: tetracyclines in treatment of amyloidoses” (2013).

Experiments:
Mus musculus [1] = species: Mus musculus; test: Antiamyloidogenic activity in R6/2 mouse Huntington's disease model assessed as increase in survival rate relative to control; type: functional
Mus musculus [2] = species: Mus musculus; test: Antiamyloidogenic activity in mouse transfected with human amylin/amyloid polypeptide assessed as increase in survival time relative to control; type: functional
Homo sapiens = species: Homo sapiens; test: Antiprion activity at scrapie prion protein in human brain at 1 mM after 1 hr by Western blotting analysis; type: tissue-based
Mus musculus [3] = test: Antiamyloidogenic activity in CMV-lambda6 mouse harboring human lambda LC protein at 0.5 mg/ml administered in drinking water for 3 to 6 months by Congo red staining-based microscopy; type: functional

CN(C)c1ccc(O)c2c1C[C@H]1C[C@H]3[C@H](N(C)C)C(O)=C(C(N)=O)C(=O)[C@@]3(O)C(O)=C1C2=O [MINOCYCLINE]
Survival (Mus musculus [1]): 14%

CN(C)[C@@H]1C(O)=C(C(N)=O)C(=O)[C@@]2(O)C(O)=C3C(=O)c4c(O)cccc4[C@@](C)(O)[C@H]3C[C@@H]12 [TETRACYCLINE]
Survival (Mus musculus [2]): 254%

C[C@H]1c2cccc(O)c2C(=O)C2=C(O)[C@]3(O)C(=O)C(C(N)=O)=C(O)[C@@H](N(C)C)[C@@H]3[C@@H](O)[C@@H]21.O [DOXYCYCLINE]
Activity (Homo sapiens): 80%
Activity (Mus musculus [3]): 23%
